ChEMBL document CHEMBL1131861, “Antitumor agents 200. Cytotoxicity of naturally occurring resveratrol oligomers and their acetate derivatives” (1999)
Values after ≈ are worked out from the molar mass of the structure shown. Active and inactive are the calls of the source. The rule behind the calls is not given here.

Assays:
[1] = tested on: A549; assay: Cytotoxicity against human lung carcinoma (A549) cell lines; type: functional; conditions: read-out: ED50 (the source's name)
[2] = tested on: CAKI-1; assay: Cytotoxicity against human renal cancer(CAKI-1) cell lines; type: functional; conditions: read-out: ED50 (the source's name)
[3] = tested on: MCF7; assay: Cytotoxicity against human breast cancer(MCF-7) cell lines.; type: functional; conditions: read-out: ED50 (the source's name)
[4] = tested on: KB; assay: Percentage inhibition of human epidermoid carcinoma of the nasopharynx(KB) cell lines.; type: functional
[5] = tested on: SAOS-2; assay: Percentage inhibition of human osteosarcoma (SaOS-2) cell lines.; type: functional
[6] = tested on: CAKI-1; assay: Percentage inhibition of human renal cancer(CAKI-1) cell lines; type: functional
[7] = tested on: 1A9; assay: Cytotoxicity against human ovarian cancer (1A9) cell lines.; type: functional; conditions: read-out: ED50 (the source's name)
[8] = tested on: A549; assay: Percentage inhibition of human lung carcinoma (A549) cell lines; type: functional
[9] = tested on: 1A9; assay: Percentage inhibition of human ovarian cancer (1A9) cell lines.; type: functional
[10] = tested on: SAOS-2; assay: Cytotoxicity against human osteosarcoma (SaOS-2) cell lines.; type: functional; conditions: read-out: ED50 (the source's name)
[11] = tested on: MCF7; assay: Percentage inhibition of human breast cancer(MCF-7) cell lines.; type: functional
[12] = tested on: KB; assay: Cytotoxicity against human epidermoid carcinoma of the nasopharynx(KB) cell lines.; type: functional; conditions: read-out: ED50 (the source's name)
[13] = tested on: A549; assay: Cytotoxicity against human lung carcinoma (A549) cell lines; Not active; type: functional, cell-based
[14] = tested on: HCT-8; assay: Cytotoxicity against human ileocecal carcinoma (HCT-8) cell lines.; type: functional; conditions: read-out: ED50 (the source's name)
[15] = tested on: CAKI-1; assay: Cytotoxicity against human renal cancer(CAKI-1) cell lines; […]; type: functional, cell-based
[16] = tested on: HCT-8; assay: Percentage inhibition human ileocecal carcinoma (HCT-8) cell lines.; type: functional

SMILES	EC50 [1]	EC50 [2]	EC50 [3]	Inhibition [4]	Inhibition [5]	Inhibition [6]	EC50 [7]	Inhibition [8]	Inhibition [9]	EC50 [10]	Inhibition [11]	EC50 [12]	ED50 [13]	EC50 [14]	ED50 [15]	Inhibition [16]
Oc1ccc([C@H]2c3c(O)cc(O)cc3[C@H]3c4c(cc(O)cc4[C@@H]2O)O[C@@H]3c2ccc(O)cc2)cc1 [AMPELOPSIN A]	> 20 µg/mL	> 20 µg/mL	> 20 µg/mL	38%	8%	38%	> 20 µg/mL	7%	32%	> 20 µg/mL	10%	> 20 µg/mL	–	–	–	–
CC(=O)Oc1ccc([C@@H]2c3c(OC(C)=O)cc(OC(C)=O)cc3[C@H]3[C@H](c4ccc(OC(C)=O)cc4)c4c(OC(C)=O)cc(OC(C)=O)cc4[C@@H]23)cc1	–	8 µg/mL (≈ 11.3 µM)	7.4 µg/mL (≈ 10.5 µM)	–	–	–	3.2 µg/mL (≈ 4.53 µM)	–	–	–	–	1.6 µg/mL (≈ 2.26 µM)	inactive	8 µg/mL (≈ 11.3 µM)	–	–
CC(=O)Oc1ccc([C@H]2c3c(OC(C)=O)cc(OC(C)=O)cc3[C@H]3c4c(cc(OC(C)=O)cc4[C@@H]2OC(C)=O)O[C@@H]3c2ccc(OC(C)=O)cc2)cc1	–	4 µg/mL (≈ 5.53 µM)	2 µg/mL (≈ 2.77 µM)	–	–	–	0.7 µg/mL (≈ 0.969 µM)	–	–	–	–	0.6 µg/mL (≈ 0.83 µM)	inactive	4.1 µg/mL (≈ 5.67 µM)	–	–
Oc1ccc([C@@H]2c3c(O)cc(O)cc3[C@@H]3c4c(cc(O)cc4[C@H]2[C@@H]2c4cc(O)cc5c4[C@@H](c4cc(O)cc(O)c4[C@H]2c2ccc(O)cc2)[C@H](c2ccc(O)cc2)O5)O[C@H]3c2ccc(O)cc2)cc1	4.8 µg/mL (≈ 5.29 µM)	–	4.2 µg/mL (≈ 4.63 µM)	–	41%	–	7.8 µg/mL (≈ 8.6 µM)	–	–	> 20 µg/mL	–	1.2 µg/mL (≈ 1.32 µM)	–	–	inactive	–
CC(=O)Oc1ccc([C@@H]2c3c(OC(C)=O)cc(OC(C)=O)cc3[C@@H]3c4c(OC(C)=O)cc(OC(C)=O)cc4C2[C@H]3c2ccc(OC(C)=O)cc2)cc1	–	> 10 µg/mL	> 10 µg/mL	–	–	21%	6 µg/mL (≈ 8.49 µM)	–	–	–	43%	3 µg/mL (≈ 4.25 µM)	inactive	> 10 µg/mL	–	36%
CC(=O)Oc1ccc(/C=C/c2cc(OC(C)=O)cc3c2[C@H](c2cc(OC(C)=O)cc(OC(C)=O)c2)[C@@H](c2ccc(OC(C)=O)cc2)O3)cc1	20 µg/mL (≈ 30.1 µM)	–	4 µg/mL (≈ 6.02 µM)	–	–	–	5.8 µg/mL (≈ 8.73 µM)	–	–	7.5 µg/mL (≈ 11.3 µM)	–	7.5 µg/mL (≈ 11.3 µM)	–	–	inactive	–
